Values after ≈ are worked out from the molar mass of the structure shown.
Legend:
[1] = chemical stability: retention (%) after heating at 60° C. for 4 hours, by HPLC; format: physicochemical
Description: The chemical stability of the present compound was evaluated by determining the retention (%) after heating at 60° C. for 4 hours. In Table 5 are shown the test results together with those for spergualin as reference. The retention was determined by means of high performance liquid chromatography (HPLC). The column was packed with Nucleosil® 5C18. The solvent used for spergualin was a mixture (6:94) of acetonitrile -0.01M sodium pentanesulfonate +0.01M Na2 HPO4 (pH 3), while that for the compounds of this invention was a mixture of acetonitrile -0.005M sodium pentanesulfonate ±0.01M Na2 HPO4 (pH 3). The mixture ratio in the latter case was varied for each particular compound. For instance, a mixing ratio of 10:90 was used for Compound No. 9, while that of 7:93 for Compound No. 22.

[2] = test system: mouse leukemia L-1210 cells; test: growth inhibitory activity to cancer cells in vitro (L-1210, 48 hours); format: cell-based
Summary of the method: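 L-1210 cells from DBA/2 mouse ascites, cultured at 5×10^4 cells per well in RPMI 1640 with 10% FCS and 5 μM 2-mercaptoethanol, 37° C, CO2, for 48 h with compound. Cell counts by Coulter Counter gave % inhibition (1−T/C)×100, and IC50 was derived across concentrations.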

mouse leukemia L-1210 = test: therapeutic effect on implanted cancer in mice (L-1210, survival over 30 days); format: in vivo, mouse (BDF1); conditions: L1210, ip, 720 h, 6 days
Summary of the method: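 Male BDF1 mice aged 5 weeks received an intraperitoneal inoculation of 10^5 L-1210 mouse leukemia cells. Starting on the inoculation day, test compounds dissolved in physiological saline were injected intraperitoneally once daily for 6 consecutive days, and animals were then followed for 30 days to record survival.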

[3] = acute toxicity in mice (single intraperitoneal administration); conditions: mouse, in vivo, ip; mice, single i.p.; read-out: LD50 (median lethal dose on single administration)
Description: In Table 8 median lethal doses (LD50) of typical compounds of this invention are shown, measured in mice upon single intraperitoneal administration, as well as maximum tolerated doses in terms of total dose when a fixed amount per unit body weight was administered intraperitoneally to mice once a day for 6 consecutive days.
*Median lethal dose on single administration.

[4] = cumulative toxicity in mice (maximum tolerated dose, once a day for 6 consecutive days); conditions: mouse, in vivo, ip, i.p. once a day for 6 consecutive days, total dose, read-out: Maximum Tolerated Dose (total dose not causing death)
Summary of the method: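 Mice dosed intraperitoneally once a day for 6 consecutive days with a fixed amount per unit body weight. The value is the maximum total dose not causing death.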

Compound: COC(NC(=O)CCCCCCNC(=N)N)C(=O)NCCCCNCCCN (racemic) [Compound 9, N-[4-(3-aminopropyl)aminobutyl]-2-(7-guanidinoheptanamido)-2-methoxyethanamide]
- remaining at 4 h ([1]; pH 2, pH 2): 69.3%
- remaining at 4 h ([1]; pH 3, pH 3): 89.3%
- remaining at 4 h ([1]; pH 4, pH 4): 100%
- remaining at 4 h ([1]; pH 5, pH 5): 100%
- remaining at 4 h ([1]; pH 6, pH 6): 100%
- remaining at 4 h ([1]; pH 7, pH 7): 100%
- remaining at 4 h ([1]; pH 8, pH 8): 100%
- remaining at 4 h ([1]; pH 9, pH 9): 97.5%
- remaining at 4 h ([1]; pH 10, pH 10): 97.9%
- inhibition at 5 µg/mL ([2]; L1210, 5 mcg/ml, read-out: Growth inhibition (%), (1-T/C) × 100): 35.5%
- inhibition at 10 µg/mL ([2]; L1210, 10 mcg/ml, read-out: Growth inhibition (%), (1-T/C) × 100): 45.9%
- inhibition at 20 µg/mL ([2]; L1210, 20 mcg/ml, read-out: Growth inhibition (%), (1-T/C) × 100): 62.3%
- inhibition at 40 µg/mL ([2]; L1210, 40 mcg/ml, read-out: Growth inhibition (%), (1-T/C) × 100): 78.1%
- inhibition at 80 µg/mL ([2]; L1210, 80 mcg/ml, read-out: Growth inhibition (%), (1-T/C) × 100): 90.9%
- inhibition at 160 µg/mL ([2]; L1210, 160 mcg/ml, read-out: Growth inhibition (%), (1-T/C) × 100): 96%
- IC50 ([2]; L1210, L-1210 cells, read-out: 50% inhibitory concentration): 12 µg/mL (≈ 29.9 µM)
- responders at 0.2 mg/kg (mouse leukemia L-1210; 0.20 mg/kg/day i.p., read-out: Number of mice survived for 30 days (converted)): 0%
- response vs control in vivo at 0.2 mg/kg (mouse leukemia L-1210; 0.20 mg/kg/day i.p., read-out: Prolongation of survival period (%), T/C × 100): 114%
- responders at 0.39 mg/kg (mouse leukemia L-1210; 0.39 mg/kg/day i.p., read-out: Number of mice survived for 30 days (converted)): 0%
- response vs control in vivo at 0.39 mg/kg (mouse leukemia L-1210; 0.39 mg/kg/day i.p., read-out: Prolongation of survival period (%), T/C × 100): 171%
- responders at 0.78 mg/kg (mouse leukemia L-1210; 0.78 mg/kg/day i.p., read-out: Number of mice survived for 30 days (converted)): 50%
- response vs control in vivo at 0.78 mg/kg (mouse leukemia L-1210; 0.78 mg/kg/day i.p., read-out: Prolongation of survival period (%), T/C × 100): > 300%
- responders at 1.56 mg/kg (mouse leukemia L-1210; 1.56 mg/kg/day i.p., read-out: Number of mice survived for 30 days (converted)): 25%
- response vs control in vivo at 1.56 mg/kg (mouse leukemia L-1210; 1.56 mg/kg/day i.p., read-out: Prolongation of survival period (%), T/C × 100): > 411%
- responders at 3.13 mg/kg (mouse leukemia L-1210; 3.13 mg/kg/day i.p., read-out: Number of mice survived for 30 days (converted)): 100%
- response vs control in vivo at 3.13 mg/kg (mouse leukemia L-1210; 3.13 mg/kg/day i.p., read-out: Prolongation of survival period (%), T/C × 100): > 429%
- responders at 6.25 mg/kg (mouse leukemia L-1210; 6.25 mg/kg/day i.p., read-out: Number of mice survived for 30 days (converted)): 100%
- response vs control in vivo at 6.25 mg/kg (mouse leukemia L-1210; 6.25 mg/kg/day i.p., read-out: Prolongation of survival period (%), T/C × 100): > 429%
- responders at 12.5 mg/kg (mouse leukemia L-1210; 12.5 mg/kg/day i.p., read-out: Number of mice survived for 30 days (converted)): 100%
- response vs control in vivo at 12.5 mg/kg (mouse leukemia L-1210; 12.5 mg/kg/day i.p., read-out: Prolongation of survival period (%), T/C × 100): > 429%
- responders at 25 mg/kg (mouse leukemia L-1210; 25 mg/kg/day i.p., read-out: Number of mice survived for 30 days (converted)): 0%
- response vs control in vivo at 25 mg/kg (mouse leukemia L-1210; 25 mg/kg/day i.p., read-out: Prolongation of survival period (%), T/C × 100): 0%
- responders at 50 mg/kg (mouse leukemia L-1210; 50 mg/kg/day i.p., read-out: Number of mice survived for 30 days (converted)): 0%
- response vs control in vivo at 50 mg/kg (mouse leukemia L-1210; 50 mg/kg/day i.p., read-out: Prolongation of survival period (%), T/C × 100): 0%
- LD50 [3]: 12.5 to 25 mg/kg
- MTD [4]: > 75 mg/kg

— US4983328A, “N-(4-(3-aminopropyl)aminobutyl)-2-(ω-gua nidino-fatty-acid-amido(-2-substituted-ethanamide, salt thereof, and process for preparation thereof” (Bristol-Myers Company, priority 1981, dated 1991)
